Experimental data published in paper PMC8123555, “Precision targeting of the plasminogen activator inhibitor‐1 mechanism increases efficacy of fibrinolytic therapy in empyema” (Physiological Reports, 2021).
Like-named read-outs stand apart in the source and are kept apart here. Where no end group is shown, it is not given here.

Experiments:
[1] = rabbit, in vivo
Method: (§1) FIGURE 7 Low dose PAI‐1‐TFT induces no intrapleural bleeding. Pleural fluids from rabbits with TCN‐induced (a) or S. pneumoniae‐induced (b) pleural injury were collected at necropsy and red blood cells (RBC) were counted using a Beckman Coulter. (a) Animals with TCN‐induced pleural injury were treated (from left to right) with vehicle control (n = 6); 62.5 µg/kg of scuPA alone (n = 6); and with 2.0 mg/kg DSP (n = 6); 72.5 µg/kg of sctPA alone (n = 5), and with 2.0 mg/kg DSP (n = 6). (b) Animals with infectious pleural injury were treated (from left to right) with vehicle control (n = 6); 0.25 mg/kg of sctPA alone (n = 5), and with 8.0 mg/kg DSP (n = 6), 0.5 mg/kg of sctPA alone (n = 6), and with 8.0 mg/kg DSP (n = 6), 0.5 mg/kg of scuPA alone (n = 9), and with 8.0 mg/kg DSP (n = 3). […] Data are presented as box and whisker plots (all points shown)

[2] = rabbit, in vivo; remark: listed apart in the source
Method: All animal procedures were approved by the Institutional Animal Care and Use Committee at The University of Texas Health Science Center at Tyler (IACUC protocols 499,616,617). Studies used female, pathogen‐free New Zealand white rabbits (3.0–3.6 kg; average age 18 weeks) from Charles River Laboratories (Wilmington, MA). These studies required a total of 107 rabbits, 43 for the model of TCN‐induced pleural injury and 64 for the model of empyema. […] Briefly, a 3 ml mixture of TCN in ascorbic acid (20 mg/ml TCN (T3258, Sigma‐Aldrich), 2.5 mg/ml ascorbic acid (A7506, Sigma‐Aldrich) and lidocaine (1 mg/ml, UTHCT Compounding Pharmacy), was delivered by intrapleural injection. A model of acute empyema in rabbits was induced as described previously (Komissarov et al., 2016). Briefly, 1–5 × 10^8 cfu of S. pneumoniae (D39 strain, National Collection of Type Cultures, Salisbury UK) in 3 ml of 0.5% brain‐heart infusion agar (BD 238400, BD Diagnostic Systems) was delivered by intrapleural injection. Clavomox (10 mg/kg, subcutaneous, daily for 1–3 days as clinically indicated by Attending Veterinarian) (10000485, Zoetis) was started at 28–30 h post‐infection. Accumulation of pleural fluid and fibrin deposition was monitored using ultrasonography; detailed in the ultrasonography subsection. After 48 or 72 h for TCN‐induced pleural injury and empyema, respectively, intrapleural therapeutics were administered depending on treatment group via an 18‐gauge catheter, which was flushed with 0.5 ml PBS. In all experiments, samples of pleural fluids (0.5 ml) from each rabbit were collected prior to and at 10, 20, and 40 min after PAI‐1‐TFT and processed for later analysis (Florova et al., 2015; Karandashova et al., 2013; Komissarov et al., 2013, 2016). […] Animals were monitored carefully for signs of distress, pain, and worsening clinical status. […]
The residual DSP in pleural fluid samples was determined using LC MS/MS. […]

[3] = Intrapleural bleeding, pleural fluid RBC counts, empyema; type: in vivo, rabbit
Method: as §1

in vivo = conditions: rabbit
Method: All animal procedures were approved by the Institutional Animal Care and Use Committee at The University of Texas Health Science Center at Tyler (IACUC protocols 499,616,617). Studies used female, pathogen‐free New Zealand white rabbits (3.0–3.6 kg; average age 18 weeks) from Charles River Laboratories (Wilmington, MA). These studies required a total of 107 rabbits, 43 for the model of TCN‐induced pleural injury and 64 for the model of empyema. […] Briefly, a 3 ml mixture of TCN in ascorbic acid (20 mg/ml TCN (T3258, Sigma‐Aldrich), 2.5 mg/ml ascorbic acid (A7506, Sigma‐Aldrich) and lidocaine (1 mg/ml, UTHCT Compounding Pharmacy), was delivered by intrapleural injection. A model of acute empyema in rabbits was induced as described previously (Komissarov et al., 2016). Briefly, 1–5 × 10^8 cfu of S. pneumoniae (D39 strain, National Collection of Type Cultures, Salisbury UK) in 3 ml of 0.5% brain‐heart infusion agar (BD 238400, BD Diagnostic Systems) was delivered by intrapleural injection. Clavomox (10 mg/kg, subcutaneous, daily for 1–3 days as clinically indicated by Attending Veterinarian) (10000485, Zoetis) was started at 28–30 h post‐infection. Accumulation of pleural fluid and fibrin deposition was monitored using ultrasonography; detailed in the ultrasonography subsection. After 48 or 72 h for TCN‐induced pleural injury and empyema, respectively, intrapleural therapeutics were administered depending on treatment group via an 18‐gauge catheter, which was flushed with 0.5 ml PBS. In all experiments, samples of pleural fluids (0.5 ml) from each rabbit were collected prior to and at 10, 20, and 40 min after PAI‐1‐TFT and processed for later analysis (Florova et al., 2015; Karandashova et al., 2013; Komissarov et al., 2013, 2016). Anesthesia, postoperative pain medication, and animal care were provided as reported previously (Florova et al., 2015; Karandashova et al., 2013; Komissarov et al., 2013, 2016). with details provided in the supplement. Animals were monitored carefully for signs of distress, pain, and worsening clinical status. Euthanasia was accomplished using intravenous injection of 1 ml of commercial euthanasia solution (sodium pentobarbital 390 mg/ml and phenytoin 50 mg/ml) followed by exsanguination.
The residual DSP in pleural fluid samples was determined using LC MS/MS. Briefly, collected samples were extracted using acetonitrile, cleaned with Microcon centrifugal filters (MRCPRT010, MilliporeSigma) and injected via autosampler onto a Pinnacle DB C8 Column (9413332, Restek) reverse‐phase column operated at a flow rate of 200 μl/min. A gradient elution method using solvent A (99% H2O, 1% acetonitrile, 0.05% TFA) for 5 min, a gradient to 100% solvent B (1% H2O, 99% acetonitrile, 0.05% TFA) over 25 min, and 100% solvent B for 2 min was employed. […]

PAI‐1 = conditions: alanine mutations of positively charged residues in the 37-loop; ref Benedict et al., 1995; Florova et al., 2018; Keyt et al., 1994; cited from earlier work
Source text: Plasminogen Activator Inhibitor‐1 (PAI‐1) is a mechanism‐based inhibitor of tissue type (tPA) and urokinase (uPA) plasminogen activators (PAs) (Carrell et al., 1991; Chaillan‐Huntington et al., 1997; Mourik et al., 1984) used for fibrinolytic therapy. Levels of PAI‐1 increase by up to three orders of magnitude in empyema (pleural sepsis), and organizing pleural injury (Aleman et al., 2003; Chung et al., 2005; Philip‐Joet et al., 1995), limiting endogenous and exogenous plasminogen activating activity that could help prevent or treat uncontrolled fibrin deposition induced by inflammation. Previ ...

Substance	Bleeding accompanying PAI-1-TFT [1]	Apparent first order rate constant of DSP clearance (kclr), slower phase [2] [min⁻¹]	DSP in pleural fluid at 24 h [2]	Presence of DSP in pleural fluid after treatment [2]	Bleeding accompanying PAI-1-TFT ([3]; DSP with plasminogen activator, empyema)	Pleural fluid RBC counts ([3]; any dose of DSP alone or in combination with plasminogen activator, pleural fluid at necropsy, Beckman Coulter)	level at 40 min (in vivo; female, New Zealand white, 8 mg/kg) [µg/mL]	Apparent first order rate constant of DSP clearance (kclr), slower phase (in vivo) [min⁻¹]	DSP in pleural fluid at 24 h (in vivo)	Presence of DSP in pleural fluid after treatment (in vivo)	Rate of reaction with PAI-1 relative to the WT enzymes (PAI‐1)
EEIIMD [DSP, EEIIMD]	no apparent local or systemic bleeding	0.03 to 0.07	No DSP was detected	over 40 min	no apparent local or systemic bleeding	no statistical difference	> 300	0.03 to 0.07	No DSP was detected	over 40 min	
tenecteplase											almost two orders of magnitude slower
